Data as given in patent US20100298376A1, “USE OF NOVEL NEUROPROTECTIVE 3-SUBSTITUTED INDOLONE COMPOSITIONS” (BOARD OF REGENTS, THE UNIVERSITY OF TEXAS SYSTEM, priority 2009, published 2010).
Several values for one entry are separate records, joined by “and”; a condition that tells them apart may be missing. Equal entries are not always repeated. Where two headings read alike, the source gives them in different places.

Key:
[1] = Z/E isomer stability in DMSO-d6 by NMR; type: physicochemical; conditions: 6 hours from mixing
[2] = Solubility in the culture medium; conditions: 25 μM
[3] = test system: cerebellar granule neurons; conditions: for % neuronal survival Mean ± SD: Table 1, 24 hours, percent of HK control
Protocol: These compounds were analyzed for their neuroprotective activity in vitro. Granule neuron cultures were obtained from dissociated cerebella of 7-8 day old Wistar rats as known to one of ordinary skill in the art. Cells were plated in Basal Eagle's Medium with Earles salts (BME) supplemented with 10% fetal calf serum (FCS), 25 mM KCl, 2 mM glutamine (Invitrogen), and 100 μg/ml gentamycin on dishes (Nunc) coated with poly-L-lysine in 24-well dishes at a density 1×10^6 cells/well. Cytosine arabinofuranoside (10 μM) was added to the culture medium 18-22 hours after plating to prevent replication of non-neuronal cells that yields highly pure culture of granule neurons. The neuronal cultures were maintained for 7-8 days prior to treatments.
This experimental model of neuronal apoptosis has been used widely used to understand the molecular mechanisms underlying neurodegeneration and to identify biological and chemical agents with neuroprotective efficacy. For this, the cells were rinsed once and then maintained in low K^+ medium (serum-free BME medium, 5 mM KCl; referred to as LK), or in the case of control cultures, in high K^+ medium (serum-free BME medium, supplemented with 20 mM KCl; referred to as HK). Each compound was tested at three different concentrations of 1 μM, 5 μM, and 25 μM. The 25 μM concentration was included to evaluate neurotoxicity. For treatments, the chemical compounds (dissolved in dimethylsulfoxide) were added directly to LK medium at the time of the switch from HK at concentrations of 1 μM, 5 μM, or 25 μM. Viability was assessed 24 hours later. Each compound was tested in duplicate (at each of the concentrations) and the experiment repeated at least 3 times. Although all compounds were solubilized in dimethylsulfoxide (DMSO), the amount of DMSO in the cultures never exceeded 0.1% (v/v).
The viability status of neuronal cultures treated with HK, LK, or LK medium supplemented with various compounds was evaluated by phase contrast microscopy and quantified by staining cell nuclei with 4′,6′-diamidino2-phenylindole hydrochloride (DAPI). Briefly, the cells were fixed in 4% paraformaldehyde for 20 minutes at 4′C. After washing in phosphate buffered saline, DAPI (1 μg/ml in phosphate buffered saline) was added for 15 min at room-temperature and viewed under ultraviolet light (260 nm). Cells with condensed or fragmented nuclei were scored as dead. […] Statistical analysis was performed using an unpaired, two-tailed Student's t test, compared to mean neuronal survival of control cultures receiving LK treatment and the quantitative data are presented in Tables 1 and 2 for each compound.

[4] = test system: cerebellar granule neurons; experiment: TUNEL and active caspase-3 immunoreactivity in neuronal cultures (FIG. 1); type: cell-based, Wistar rats; conditions: Compound 31 at 1 μm, compared with Compounds 7, 37 and 39, 24 hours
Description: FIG. 1 is a photograph illustrating the qualitative neuroprotective effects of Compound 7 (5 μm), Compound 31 (1 μm), Compound 37 (25 μm) and Compound 39 (25 lam) are illustrated presented in the figure. From left to right columns show phase-contrast micrographs of neuronal morphology, DAPI staining of nuclei showing fragmented nuclei, TUNEL staining also showing fragmented DNA, and active caspase-3 immunoreactivity highly indicative of apoptosis. DAPI and TUNEL panels are taken from the same fields.
The TUNEL assay of neuronal cultures was performed 24 hours after treatment of the cultures using DEADEND™ Fluorometric TUNEL System from Promega (Madison, Wis.) according to the manufacturer's instructions. For immunocytochemical analysis of active caspase 3, neuronal cultures cells were fixed and treated with 0.2% Triton for 5 minutes. After blocking with PBS containing 5% BSA and 5% goat serum in PBS for 30 minutes, the coverslips were incubated with the active capase-3 primary antibody overnight at 4° C. After three washes with phosphate-buffered saline (PBS), the cells were incubated with secondary antibodies for 45 minutes at 25° C. after which the cells were washed with PBS. To visualize nuclei, cells were stained with DAPI for 15 minutes at 25° C.

[5] = LK medium, concentration not specified

Structure (SMILES) | percent of Z configuration after 6 hours [1] [%] | solubility in the culture medium (in words) [2] | neurotoxicity (in words) [3] | neuroprotective activity (in words) [3, 5] | % neuronal survival Mean ± SD ([3]; 1 μM in LK medium) [%] | % neuronal survival Mean ± SD ([3]; 5 μM in LK medium) | neuroprotective activity (in words) ([3]; at 1 μM and 5 μM (two lower concentrations)) | neuroprotective activity (in words) ([3]; at 5 μM) | TUNEL and active caspase-3 immunoreactivity (in words) [4] | % neuronal survival Mean ± SD ([3]; 25 μM in LK medium) [%]
O=C1Nc2ccc(Br)cc2/C1=C\c1cc(Br)c(O)c(Br)c1 [Compound 16, (E)-5-Bromo-3-(3′,5′-dibromo-4-hydroxybenzylidene)indolin-2-one] | 80 | not completely soluble | not toxic | superior to Compound 1 | 88.4 ± 0.71 | 98.7% and 98.7 ± 3.85 % | highly protective | highly effective |  | 
O=C1Nc2ccc(F)cc2/C1=C\c1cc(Br)cc(Br)c1 [Compound 31, (E)-3-(3′,5′-Dibromobenzylidene)-5-fluoroindolin-2-one] |  |  |  | lack of neuroprotective activity | 38.4 ± 6.24 | 46.1 ± 4.00% |  |  | greater TUNEL and active caspase-3 immunoreactivity | 48.1 ± 14.65
O=C1Nc2ccccc2/C1=C\c1cc(Br)c(O)c(Br)c1 [Compound 1, (E)-3-(3′,5′-Dibromo-4′-hydroxybenzylidene)indolin-2-one] | 50 |  | not toxic | moderately effective | 69.7 ± 2.19 | 88.4 ± 11.74 % |  |  |  | 84.6 ± 7.57
